Laboratory results published in patent US20130123367A1, “VINYLOGOUS CHALCONE DERIVATIVES AND THEIR MEDICAL USE” (MEDIZINISCHE UNIVERSITAT WIEN, priority 2010, published 2013).
Read-outs that look alike come from different tables or passages of the source.

Experiments:
[1] = test system: healthy peripheral blood mononuclear cells (PBMC); assay: Effect on healthy PBMC (CellTiter-Blue viability)
Procedure: FIG. 8: Effect of compounds 1 and 22 according to the invention as well as the control drugs fludarabine and cyclophosphamide on the viability of healthy peripheral blood mononuclear cells (PBMC) in suspension culture after 48 h incubation. Data points represent one individual calculated in relation to the control. Viability was measured using the CellTiter Blue assay (Promega, Madison, Wis., USA), and cells incubated in solvent only were used as control.
For quantification, cells were treated with resazurin (7-hydroxy-3H-phenoxazin-3-one 10-oxide) as indicator of cell viability. The method is based on the finding that living cells are able to reduce the non-fluorescent blue dye into the pink colored and highly red fluorescent resorufine. After adding the substrate the cells are incubated for 2 to 4 hours. Then, the solution is analyzed at 560 nm Ex/590 nm Em on a fluorometer. Appropriate cell density for seeding and duration of treatment with the substrate were determined in preliminary experiments.
First, cells were seeded in 96 well plates and then growth medium was added to each well to get a final volume of 80 μl. Compounds to be tested were diluted with medium from a 10 mM stock solution in DMSO to get different concentrations, and 20 μl of these solutions were added to the wells. The final DMSO concentration was 0.5%. All treatments and controls were performed in at least triplicates. Cells were incubated at 37° C. and 5% CO2 for 48 h. Then, 20 μl substrate solution was added to the wells, plates were incubated for 3 hours and analyzed.
The impact of the compounds according to the invention on healthy cells was assessed using peripheral blood mononuclear cells (PBMC). Cell viability was tested using the CellTiter-Blue Cell Viability Assay (Promega, Madison, Wis., USA) as described in Example 7.

[2] = test system: SU-DHL-9 (Non Hodgkin's lymphoma); assay: Cell viability assay using EZ4U viability kit, SU-DHL-9; assay type: cell-based
Procedure: (§1) For quantification, cells are treated with a tetrazolium salt as indicator of cell viability. […] Then, the solution is analyzed photometrically at 450 nm with 620 nm as reference.
(§2) The final DMSO concentration was 0.5%. […] Then, wells were filled with 20 μl substrate solution for 2 to 4 hours and analyzed.
(§3) Cell viability was calculated relative to DMSO control for data comparison. IC50 values (50% inhibition of cell growth) were determined with GraphPad Prism® (Version 4.03) using nonlinear regression (sigmoidal dose-response with variable slope).

[3] = test system: hematological cell lines; assay: Viability assay in cell lines, summary of Table 4; assay type: cell-based; settings: after 48 hours in most of the cell lines, read-out: IC50-values obtained by the viability assay in cell lines
Procedure: as §1, §2, §3

[4] = test system: Jurkat (T-cell acute lymphoblastic leukemia); assay: Cell viability assay using EZ4U viability kit, Jurkat; assay type: cell-based; settings: Homo sapiens
Procedure: as §1, §2, §3

[5] = test system: HUVEC; assay: Cell proliferation assay using crystal violet, HUVEC; assay type: cell-based; settings: Homo sapiens
Procedure: (§4) For quantification, cells are treated with crystal violet, a dye that stains proteins. After washing away of excess dye, the remaining crystal violet is dissolved in a sodium citrate solution. The solution is analyzed photometrically at 590 nm. The optical density of this solution depends on the concentration of crystal violet and therefore on the amount of cells. […] To reduce effects of evaporation, only the inner 60 wells of 96-well plates (coated with 0.1% gelatine solution for studies with HUVEC) were used for experiments.
(§5) Cells were seeded at a density of 5 000 cells per well in 100 μl growth medium (HUVEC) or 20 000 (HCT116), 15 000 (SW480 and 518A2) or 10 000 (HT29) cells per well in 200 μl growth medium in 55 wells per plate. 5 wells were filled with medium only. Additionally, a 96-well plate with cells in 12 wells and medium in 6 wells was prepared as T0-plate. The next day, additional 98 μl of growth medium were added in every well (only HUVEC).
(§6) Cells were treated with 2 μl of the working solution 24 h after seeding. Final compound concentrations in the well were 10 μM for the first round of screening. The final DMSO concentration was 0.5%. […] After finishing the addition of compounds, the T0-plate was stained with crystal violet for giving the cell density at time point zero. Before staining, the growth medium was poured away. Wells were filled with 50 μl crystal violet solution for 10 min. Then the staining solution was washed away with water. Since crystal violet is environmentally hazardous the waste was collected and disposed in an appropriate manner. After air drying of the plates the crystal violet on the cells was dissolved in 100 μl of sodium citrate solution, and the absorption was measured with a plate reader at 590 nm.
(§7) Mean values were corrected with the absorption of stained medium and the corrected absorption of T0 cells. Cell growth was calculated relative to DMSO control for data comparison.

[6] = test system: colon carcinoma cell line HCT116p53 wild type; assay: Crystal violet assay, HCT116p53wt; assay type: cell-based; settings: n = 3
Procedure: as §4
Cells were treated with 2 μl of the working solution 24 h after seeding. Final compound concentrations in the well were 10 μM for the first round of screening. The final DMSO concentration was 0.5%. […] After finishing the addition of compounds, the T0-plate was stained with crystal violet for giving the cell density at time point zero. […] After air drying of the plates the crystal violet on the cells was dissolved in 100 μl of sodium citrate solution, and the absorption was measured with a plate reader at 590 nm.
as §3, with “Mean values were corrected with the absorption of stained medium and the corrected absorption of T0 cells. Cell” for “Cell”, “growth” for “viability”, “slope). […]” for “slope).”

[7] = test system: CCRF-CEM (T-cell acute lymphoblastic leukemia); assay: Cell viability assay using EZ4U viability kit, CCRF-CEM; assay type: cell-based; settings: Homo sapiens
Procedure: as §1, §2, §3

[8] = test system: HCT116 cell line; assay: Cell proliferation assay using crystal violet, HCT116; assay type: cell-based; settings: Homo sapiens, HCT-116, n = 3, 24 h incubation
Procedure: as §4, §5, §6, §7

[9] = test system: primary chronic lymphocytic leukemia (CLL) cells; assay: In vitro drug test in primary CLL cells (CellTiter-Blue viability); assay type: cell-based; settings: 48 h incubation; mean of 15 patients; FIG. 6
Text: FIG. 6: […] Data points represent the arithmetic mean of 15 patients calculated in relation to the control. […] The final DMSO concentration was 0.5%.

[10] = test system: colon cancer cell line HT29; assay: Cell proliferation assay using crystal violet, HT29; assay type: cell-based; settings: Homo sapiens, HT-29, n = 3, 24 h incubation
Procedure: as §4, §5, §6
as §3, with “Mean values were corrected with the absorption of stained medium and the corrected absorption of T0 cells. Cell” for “Cell”, “growth” for “viability”, “slope). […]” for “slope).”

[11] = 24 h incubation, read-out: IC50 (nM) SU-DHL-9 24 h
[12] = 48 h incubation, read-out: IC50 (nM) SU-DHL-9 48 h
[13] = 24 h incubation, read-out: IC50 (nM) Jurkat 24 h (converted)
[14] = 48 h incubation, read-out: IC50 (nM) Jurkat 48 h (converted)
[15] = 24 h incubation, read-out: IC50 (nM) CCRF-CEM 24 h
[16] = 48 h incubation, read-out: IC50 (nM) CCRF-CEM 48 h

Structure (SMILES) | viability of healthy PBMC in suspension culture (toxicity) [1] | IC50 [2, 11] [nM] | IC50 [2, 12] [nM] | IC50 [3] [µM] | IC50 [4, 13] [nM] | IC50 [4, 14] [nM] | IC50 ([5]; n = 3, 48 h incubation, read-out: IC50 (nM) HUVEC (converted)) [nM] | IC50 ([5]; n = 3, read-out: IC50 (nM) HUVEC (Table 2)) [nM] | IC50 [6] [nM] | IC50 [7, 15] [nM] | IC50 [7, 16] [nM] | IC50 [8] [nM] | viability of primary CLL cells in suspension culture [9] | IC50 [10] [nM]
COc1ccccc1/C=C/C=C/C(=O)c1cc(OC)c(OC)c(OC)c1 [Compound 1, 5-(2-Methoxyphenyl)-1-(3′,4′,5′-trimethoxyphenyl)-2,4-pentadiene-1-one] | less toxic | 60 | 50 | ~0.01 | 1110 | 630 | 340 | 280 | 280 | 70 | 70 | 230 | effective in CLL cells at lower concentrations than the standard therapeutic drugs fludarabine and cyclophosphamide | 540
CCOc1ccccc1C(=O)/C=C/c1ccc2ccccc2c1 [Compound 22, 3-(2-Naphthyl)-1-(2′-ethoxyphenyl)-2-propene-1-one] | less toxic | 30 | 50 | ~0.01 | 7840 | 7210 |  |  |  | 40 | 40 |  | effective in CLL cells at lower concentrations than the standard therapeutic drugs fludarabine and cyclophosphamide | 
